Reference: ChEMBL document CHEMBL3286297, “Design, synthesis and antiproliferative activity of a novel class of indole-2-carboxylate derivatives” (Eur J Med Chem, 2014)
Blank lines part the entries; values can stand above or below the compound they belong to. Calls of active or inactive are those of the source. No cut-off for these calls is given here.

Key:
Format in all cases: functional, cell-based
HepG2 = assay: Antiproliferative against human HepG2 cells after 48 hrs by MTT assay; conditions: HepG2, 48 h
A549 [1] = assay: Antiproliferative against human A549 cells after 48 hrs by MTT assay; conditions: A549, 48 h
MCF7 = assay: Antiproliferative against human MCF7 cells after 48 hrs by MTT assay; conditions: MCF7, 48 h
A549 [2] = assay: Induction of reactive oxygen species generation in human A549 cells at 200 uM after 48 hrs by […]
A549 [3] = assay: Cell cycle arrest in human A549 cells assessed as accumulation at G2/M phase after 48 hrs by flow cytometric analysis
A549 [4] = assay: Cell cycle arrest in human A549 cells assessed as accumulation at G1 phase after 48 hrs by flow cytometric analysis
A549 [5] = assay: Induction of reactive oxygen species generation in human A549 cells after 48 hrs by […]
A549 [6] = assay: Induction of apoptosis in human A549 cells assessed as […] cleavage after 48 hrs by Western blot analysis

Compound: CCOc1ccc2[nH]c(C(=O)OC)cc2c1OCC1CCCCC1
IC50 (HepG2): > 200 µM
IC50 (A549 [1]): 65.2 µM
IC50 (MCF7): > 200 µM

Compound: COC(=O)c1cc2c(OCC3CCCCC3)cccc2[nH]1
IC50 (HepG2): > 200 µM
IC50 (A549 [1]): 31.1 µM
IC50 (MCF7): 89.8 µM

Compound: COC(=O)c1cc2c(OCC(C)C)cccc2[nH]1
IC50 (HepG2): > 200 µM
IC50 (A549 [1]): 51.4 µM
IC50 (MCF7): > 200 µM

Compound: CCCCOc1cc(OC)cc2[nH]c(C(=O)OC)cc12
IC50 (HepG2): > 200 µM
IC50 (A549 [1]): 40.4 µM
IC50 (MCF7): 41.8 µM

Compound: COC(=O)c1cc2ccc(N(C)C)cc2[nH]1
IC50 (HepG2): > 200 µM
IC50 (A549 [1]): > 200 µM
IC50 (MCF7): > 200 µM

Compound: COC(=O)c1cc2c(OC(C)C)cccc2[nH]1
IC50 (HepG2): > 200 µM
IC50 (A549 [1]): > 200 µM
IC50 (MCF7): > 200 µM

Compound: COC(=O)c1cc2c(OCC(C)C)cc(NC(C)=O)cc2[nH]1
IC50 (HepG2): > 200 µM
IC50 (A549 [1]): > 200 µM
IC50 (MCF7): > 200 µM

Compound: COC(=O)c1cc2c(OCc3ccc(F)cc3)cc(N)cc2[nH]1
IC50 (HepG2): > 200 µM
IC50 (A549 [1]): > 200 µM
IC50 (MCF7): > 200 µM

Compound: CCCCOc1cccc2[nH]c(C(=O)OC)cc12
IC50 (HepG2): > 200 µM
IC50 (A549 [1]): 87.1 µM
IC50 (MCF7): > 200 µM

Compound: COC(=O)c1cc2c(OCc3ccccc3)cc(N)cc2[nH]1
IC50 (HepG2): > 200 µM
IC50 (A549 [1]): > 200 µM
IC50 (MCF7): > 200 µM

Compound: COC(=O)c1cc2c(OCC3CCCCC3)cc(OC)cc2[nH]1
IC50 (HepG2): > 200 µM
IC50 (A549 [1]): 107 µM
IC50 (MCF7): 81.1 µM

Compound: COC(=O)c1cc2c(OC)cccc2[nH]1
IC50 (HepG2): > 200 µM
IC50 (A549 [1]): > 200 µM
IC50 (MCF7): > 200 µM

Compound: CCCOc1cccc2[nH]c(C(=O)OC)cc12
IC50 (HepG2): > 200 µM
IC50 (A549 [1]): > 200 µM
IC50 (MCF7): > 200 µM

Compound: CCCOc1cc(OC)cc2[nH]c(C(=O)OC)cc12
IC50 (HepG2): > 200 µM
IC50 (A549 [1]): 25.4 µM
IC50 (MCF7): 18.8 µM

Compound: COC(=O)c1cc2c(OCC3CCCCC3)cc(NC(C)=O)cc2[nH]1
IC50 (HepG2): > 200 µM
IC50 (A549 [1]): > 200 µM
IC50 (MCF7): > 200 µM

Compound: COC(=O)c1cc2ccc(N)cc2[nH]1
IC50 (HepG2): > 200 µM
IC50 (A549 [1]): > 200 µM
IC50 (MCF7): > 200 µM

Compound: COC(=O)c1cc2c(O)cc(N)cc2[nH]1
IC50 (HepG2): > 200 µM
IC50 (A549 [1]): > 200 µM
IC50 (MCF7): > 200 µM

Compound: C=CCOc1cc(N)cc2[nH]c(C(=O)OC)cc12
IC50 (HepG2): > 200 µM
IC50 (A549 [1]): > 200 µM
IC50 (MCF7): > 200 µM

Now those with a lower IC50 (HepG2), led by results:

IC50 (HepG2): 168 µM
IC50 (A549 [1]): 102 µM
IC50 (MCF7): > 200 µM
Compound: CCCCOc1c(OCC)ccc2[nH]c(C(=O)OC)cc12

IC50 (HepG2): 68.9 µM
IC50 (A549 [1]): 11.4 µM
IC50 (MCF7): 97.4 µM
Compound: COC(=O)c1cc2c(OCC(C)C)cc(N)cc2[nH]1

IC50 (HepG2): 63.5 µM
IC50 (A549 [1]): > 200 µM
IC50 (MCF7): > 200 µM
Compound: CCCOc1c(OCC)ccc2[nH]c(C(=O)OC)cc12

IC50 (HepG2): 45.7 µM
IC50 (A549 [1]): 750 µM
IC50 (MCF7): 25.5 µM
Compound: O=C(O)c1cc(C(=O)O)c2c(n1)C(=O)C(=O)c1cc(C(=O)O)[nH]c1-2 [PYRROLOQUINOLINE QUINONE]
Activity (A549 [2]): Active

IC50 (HepG2): 14.5 µM
IC50 (A549 [1]): 3.98 µM
IC50 (MCF7): 3.78 µM
Compound: COC(=O)c1cc2c(OCC3CCCCC3)cc(N)cc2[nH]1
Activity (A549 [3]): Dose-dependent effect
Activity (A549 [4]): Dose-dependent effect
Activity (A549 [5]): Dose-dependent effect
Activity (A549 [6]): Dose-dependent effect

IC50 (HepG2): 13.7 µM
IC50 (A549 [1]): 242 µM
IC50 (MCF7): 81.1 µM
Compound: COc1cc([C@@H]2c3cc4c(cc3[C@@H](O[C@@H]3O[C@@H]5CO[C@@H](C)O[C@H]5[C@H](O)[C@H]3O)[C@H]3COC(=O)[C@H]23)OCO4)cc(OC)c1O [ETOPOSIDE]

IC50 (HepG2): 3.8 µM
IC50 (A549 [1]): 24.1 µM
IC50 (MCF7): 6.38 µM
Compound: COC(=O)c1cc2c(OC(C)C)cc(OC)cc2[nH]1
Activity (A549 [3]): Dose-dependent effect
Activity (A549 [4]): Dose-dependent effect
Activity (A549 [5]): Dose-dependent effect
Activity (A549 [6]): Dose-dependent effect

IC50 (HepG2): 0.0673 µM
IC50 (A549 [1]): 1.53 µM
IC50 (MCF7): 0.0258 µM
Compound: CC(=O)O[C@H]1C(=O)[C@@]2(C)[C@H]([C@H](OC(=O)c3ccccc3)[C@]3(O)C[C@H](OC(=O)[C@H](O)[C@@H](NC(=O)c4ccccc4)c4ccccc4)C(C)=C1C3(C)C)[C@]1(OC(C)=O)CO[C@@H]1C[C@@H]2O [PACLITAXEL]
